Counter-ions that a name gives are not always drawn.

Series [1] is described as follows: Metabolic stability in liver microsomes with NADPH-generating system, LC-MS analysis. It counts as in vitro ADME. As to conditions: compound 5 μM, active microsomes 1 mg/ml. Here is the method:
Sub-cellular tissue preparations were made according to Gorrod et al. (Xenobiotica 5: 453-462, 1975) by centrifugal separation after mechanical homogenization of tissue. Liver tissue was rinsed in ice-cold 0.1 M Tris-HCl (pH 7.4) buffer to wash excess blood. Tissue was then blotted dry, weighed and chopped coarsely using surgical scissors. The tissue pieces were homogenized in 3 volumes of ice-cold 0.1 M phosphate buffer (pH 7.4).
Tissue homogenates were centrifuged at 9000×g for 20 minutes at 4° C. The resulting supernatant was stored at −80° C. and is designated ‘S9’.
The S9 fraction can be further centrifuged at 100.000×g for 60 minutes (4° C.). The resulting supernatant was carefully aspirated, aliquoted and designated ‘cytosol’. The pellet was re-suspended in 0.1 M phosphate buffer (pH 7.4) in a final volume of 1 ml per 0.5 g original tissue weight and designated ‘microsomes’.
All sub-cellular fractions were aliquoted, immediately frozen in liquid nitrogen and stored at −80° C. until use.
For the samples to be tested, the incubation mixture contained PBS (0.1M), compound (5 μM), microsomes (1 mg/ml) and a NADPH-generating system (0.8 mM glucose-6-phosphate, 0.8 mM magnesium chloride and 0.8 Units of glucose-6-phosphate dehydrogenase). Control samples contained the same material but the microsomes were replaced by heat inactivated (10 minutes at 95 degrees Celsius) microsomes. Recovery of the compounds in the control samples was always 100%.
The mixtures were preincubated for 5 minutes at 37 degrees Celsius. The reaction was started at time point zero (t=0) by addition of 0.8 mM NADP and the samples were incubated for 60 minutes (P60). The reaction was terminated by the addition of 2 volumes of DMSO. Then the samples were centrifuged for 10 minutes at 900×g and the supernatants were stored at room temperature for no longer as 24 hours before analysis. All incubations were performed in duplo. Analysis of the supernatants was performed with LC-MS analysis. Elution of the samples was performed on a Xterra MS C18 (50×4.6 mm, 5 μm, Waters, US). An Alliance 2790 (Supplier: Waters, US) HPLC system was used. Elution was with buffer A (25 mM ammoniumacetate (pH 5.2) in H2O/acetonitrile (95/5)), solvent B being acetonitrile and solvent C methanol at a flow rate of 2.4 ml/min. The gradient employed was increasing the organic phase concentration from 0% over 50% B and 50% C in 5 min up to 100% B in 1 minute in a linear fashion and organic phase concentration was kept stationary for an additional 1.5 minutes. Total injection volume of the samples was 25 μl.
A Quatro triple quadrupole mass spectrometer fitted with and ESP source was used as detector. The source and the desolvation temperature were set at 120 and 350° C. respectively and nitrogen was used as nebuliser and drying gas. Data were acquired in positive scan mode (single ion reaction). Cone voltage was set at 10 V and the dwell time was 1 second.
Metabolic stability was expressed as % metabolism of the compound after 15 or 60 minutes (equation given as example) of incubation in the presence of active microsomes (E(act))
Background: Liver microsomes are vesicles of endoplasmic reticulum, rich in cytochrome P450 enzymes.

The target of series [2] is T1, h5-HT4b (Homo sapiens, UniProt Q13639).
T1 construct: expressed in transfected cells; host or cells: HEK 293 (clone 9), membrane preparation
T1 sequence (Q13639 whole entry): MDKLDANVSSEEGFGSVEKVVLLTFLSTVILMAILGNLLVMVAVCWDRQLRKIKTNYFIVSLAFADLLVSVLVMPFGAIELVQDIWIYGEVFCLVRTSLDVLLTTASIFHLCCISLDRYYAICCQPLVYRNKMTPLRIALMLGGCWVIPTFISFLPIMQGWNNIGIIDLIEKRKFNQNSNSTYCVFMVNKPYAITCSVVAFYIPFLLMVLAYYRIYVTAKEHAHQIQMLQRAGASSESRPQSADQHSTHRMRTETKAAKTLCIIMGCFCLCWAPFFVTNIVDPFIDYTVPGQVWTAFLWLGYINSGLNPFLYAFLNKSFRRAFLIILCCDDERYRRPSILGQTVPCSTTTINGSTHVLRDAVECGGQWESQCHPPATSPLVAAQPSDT
In words: 5HT4 antagonism: [3H]GR113808 binding to membranes of h5-HT4b-HEK 293 clone 9 cells. As to conditions: [3H]GR113808 0.1 nM, h5-HT4b-HEK 293 membranes, 30 min at 25° C. The protocol: h5-HT4b-HEK 293 clone 9 cells were cultured in 150 mm Petri dishes and washed twice with cold PBS. The cells were then scraped from the plates and suspended in 50 mM Tris-HCl buffer, pH 7.4 and harvested by centrifugation at 23,500 rpm for 10 minutes. The pellet was resuspended in 5 mM Tris-HCl, pH 7.4 and homogenized with an Ultra Turrax homogenizer. The membranes were collected by centrifugation at 30,000 rpm for 20 min, resuspended in 50 mM Tris-HCl pH 7.4 and stored at −80° C. For the experiment, assay mixtures (0.5 ml) contained 50 μl of the tritiated ligand (5-HT4 antagonist [^3H]GR113808 0.1 nM) and 0.4 ml membrane preparation (15 μg protein/ml). 50 μl of 10% DMSO was added for total binding. 50 μl of 1 μM of (+)-trans-(1-butyl-3-hydroxy4-piperidinyl)methyl 8-amino-7-chloro-2,3-dihydro-1,4-benzodioxin-5-carboxylate (a proprietary 5HT4 agonist of Janssen Pharmaceutica) was added for determination of non-specific binding.
The [^3H]GR113808 assay buffer was 50 mM HEPES-NaOH, pH 7.4. The mixtures were incubated for 30 min at 25° C. The incubation was terminated by filtration over a Unifilter 96 GF/B presoaked in 0.1% polyethylenimine, followed by six washing steps with 50 mM HEPES-NaOH, pH 7.4.

With `CNCCCCN1CC[C@@H](CNC(=O)c2ccc(C)c3c2OCCCO3)[C@H](O)C1` (as salt: salt) [compound 4], the melting point came to 120 °C.

As for `CCCCN1CC[C@@H](CNC(=O)c2cc(Cl)c(Br)c3c2OCCCO3)[C@H](O)C1` [Co. No. 22], the “% metabolised compound” value in series [1] (60 minutes incubation) is reported as 51 (60″) %.

Consider `O=C(NC[C@@H]1CCN(CCCO)C[C@H]1O)c1cc(Cl)c(Br)c2c1OCCCO2` [Co. No. 24], for which the “% metabolised compound” value in series [1] (15 minutes incubation) was 4 (15″) %.

On to `O=C(NC[C@@H]1CCN(CCC2OCCO2)C[C@H]1O)c1cc(Cl)c(Cl)c2c1OCCCO2` [Co. No. 88], for which the “% metabolised compound” value in series [1] (15 minutes incubation) was 10 (15″) %.

Regarding `CCCCN1CC[C@@H](CNC(=O)c2cc(Cl)cc3c2OCCCO3)[C@H](O)C1` [WO-00/37461 Co. No. 119, reference compound], the “% metabolised compound” value in series [1] (60 minutes incubation) is on record as 68 (60″) %.

With `O=C(NC[C@@H]1CCN(CCC2OCCO2)C[C@H]1O)c1cc(Cl)cc2c1OCCCO2` [WO-00/37461 Co. No. 143, reference compound], the “% metabolised compound” value in series [1] (15 minutes incubation) is listed as 26.5 (15″) %.

Turning to `O=C(NC[C@@H]1CCN(CCCO)C[C@H]1O)c1cc(Cl)cc2c1OCCCO2` [WO-00/37461 Co. No. 144, reference compound], the “% metabolised compound” value in series [1] (15 minutes incubation) is on record as 5 (15″) %.

In turn, `CCCCN1CC[C@@H](CNC(=O)c2ccc(C)c3c2OCCCO3)[C@H](O)C1` [compound 1] had a melting point of 127 °C. Also, the IC50 in series [2] is 1.32 nM.

With `COCCCN1CC[C@@H](CNC(=O)c2ccc(C)c3c2OCCCO3)[C@H](O)C1` [compound 2], the melting point was 109 °C. Besides, the IC50 in series [2] is 2.75 nM.

Turning to `CCCCN1CC[C@@H](CNC(=O)c2cc(Cl)c(OC)c3c2OCCO3)[C@H](O)C1` [compound 7], the melting point is 127 °C. The 50% inhibitory concentration (IC50) in series [2] is 1.74 nM.

`CCCCN1CC[C@@H](CNC(=O)c2cc(Cl)c(Cl)c3c2OCCCO3)[C@H](O)C1` [compound 16]: the melting point amounted to 115 °C. In addition, the IC50 in series [2] was 1.23 nM.

Take `Cc1ccc(C(=O)NC[C@@H]2CCN(CCCCNS(C)(=O)=O)C[C@H]2O)c2c1OCCCO2` [compound 107]: the melting point stood at 124 °C. The compound also gave an IC50 in series [2] of 2.45 nM.

The compound `Cc1ccc(C(=O)NC[C@@H]2CCN(CCCC(N)=O)C[C@H]2O)c2c1OCCCO2` [compound 109] returned a melting point of 160 °C. For the same compound, the IC50 in series [2] was 1.17 nM.

In turn, `COc1ccc(C(=O)NC[C@@H]2CCNC[C@H]2O)c2c1OCCO2` [compound 117] showed a melting point of 160 °C. The IC50 in series [2] was 107 nM.

As for `COc1ccc(C(=O)NC[C@@H]2CCN(CCCCC(N)=O)C[C@H]2O)c2c1OCCO2` [compound 125], in series [2], the IC50 was 3.24 nM.

With `COc1ccc(C(=O)NC[C@@H]2CCN(CCCS(C)(=O)=O)C[C@H]2O)c2c1OCCCO2` [compound 126], in series [2], the IC50 is 7.94 nM.

Regarding `COc1ccc(C(=O)NC[C@@H]2CCN(CCOCCO)C[C@H]2O)c2c1OCCCO2` [compound 127], the half-maximal inhibitory concentration (IC50) in series [2] is 13.8 nM.

In series [2], `COc1ccc(C(=O)NC[C@@H]2CCN(CCCC(N)=O)C[C@H]2O)c2c1OCCCO2` [compound 128] showed an IC50 of 7.24 nM. Compared with the last compound, the IC50 is about 1.9-fold lower.

In series [2], `COCCCCN1CC[C@@H](CNC(=O)c2ccc(OC)c3c2OCCCO3)[C@H](O)C1` [compound 129] had a concentration for half-maximal inhibition (IC50) of 3.39 nM. This IC50 lies about 2.1-fold lower than the previous one.

In series [2], `COc1ccc(C(=O)NC[C@@H]2CCN(CCCCNc3nccnc3C)C[C@H]2O)c2c1OCCCO2` [compound 130] had a half-inhibitory concentration (IC50) of 3.89 nM.

In series [2], `CCCCN1CC[C@@H](CNC(=O)c2ccc(F)c3c2OCCCO3)[C@H](O)C1` [compound 131] showed an IC50 of 1 nM.

The compound `COCCCN1CC[C@@H](CNC(=O)c2ccc(F)c3c2OCCCO3)[C@H](O)C1` [compound 132] showed a half-maximal inhibitory concentration (IC50) in series [2] of 2.24 nM.

Compound `COc1ccc(C(=O)NCC2(O)CCN(CCCC#N)CC2)c2c1OCCCO2` [compound 133] had a concentration for half-maximal inhibition (IC50) in series [2] of 11.2 nM.

In turn, `COc1ccc(C(=O)NC[C@@H]2CCN(CCCNS(C)(=O)=O)C[C@H]2OC)c2c1OCCCO2` [compound 134] showed an IC50 in series [2] of 0.912 nM. This IC50 lies about 12-fold lower than the previous one.

In series [2], `COCCCCN1CCC(O)(CNC(=O)c2ccc(OC)c3c2OCCCO3)CC1` [compound 135] showed an IC50 of 182 nM.

Turning to `CCCCN1CCC(O)(CNC(=O)c2ccc(OC)c3c2OCCCO3)CC1` [compound 136], the IC50 in series [2] is 91.2 nM.

For `COc1ccc(C(=O)NC[C@H]2CCN(CCCC#N)C[C@H]2O)c2c1OCCCO2` [compound 137], the IC50 in series [2] was 155 nM.

For `COc1ccc(C(=O)NC[C@@H]2CCN(CCCC#N)C[C@H]2O)c2c1OCCO2` [compound 138], the half-inhibitory concentration (IC50) in series [2] is 6.17 nM.

`COc1ccc(C(=O)NC[C@@H]2CCN(CCCC(N)=O)C[C@H]2O)c2c1OCCO2` [compound 139] gave an IC50 in series [2] of 5.89 nM.

`COc1ccc(C(=O)NC[C@@H]2CCN(CCCC(N)=O)C[C@H]2OC)c2c1OCCO2` [compound 140] had a melting point of 180 °C. In series [2], the IC50 was 33.9 nM.

In series [2], `CCCCN1CC[C@H](CNC(=O)c2ccc(OC)c3c2OCCCO3)[C@H](O)C1` [compound 141] gave an IC50 of 214 nM.

For `COCCCCN1CC[C@H](CNC(=O)c2ccc(OC)c3c2OCCCO3)[C@H](O)C1` [compound 142], the IC50 in series [2] is 162 nM.

As for `O=C(NC[C@@H]1CCN(CCCCO)C[C@H]1O)c1ccc(F)c2c1OCCCO2` [compound 143], the IC50 in series [2] is 1.17 nM. Compared with the last compound, the IC50 is about 140-fold lower.

In turn, `COc1ccc(C(=O)NC[C@H]2CCN(CCCC(N)=O)C[C@H]2O)c2c1OCCCO2` [compound 144] had a half-inhibitory concentration (IC50) in series [2] of 282 nM.

Turning to `CCOc1ccc(C(=O)NC[C@@H]2CCN(CCCC#N)C[C@H]2O)c2c1OCCCO2` [compound 145], the melting point is 131 °C. The concentration for half-maximal inhibition (IC50) in series [2] is 8.71 nM.

On to `CCOc1ccc(C(=O)NC[C@@H]2CCN(CCCC(N)=O)C[C@H]2O)c2c1OCCCO2` [compound 146], for which the IC50 in series [2] is 5.89 nM.

The compound `COc1ccc(C(=O)NCC2(O)CCN(CCCC(N)=O)CC2)c2c1OCCCO2` [compound 147] had an IC50 in series [2] of 501 nM.

By melting point is commonly meant the temperature of the solid-liquid transition. What is called IC50 is the midpoint of a concentration-inhibition curve. The low end stands for inhibition by little substance, the high end for a need for much substance.

Values taken from patent publication US7635706B2, “5HT4-antagonistic 4-(aminomethyl)-piperidine benzamides” (Janssen Pharmaceutica NV, priority 2003, dated 2009).
